Assay results from patent US9713613B2, “Methods and compositions for the treatment of cancer and related hyperproliferative disorders” (priority 2007, dated 2017).

What was measured:
ob/ob mice = test: GC-MS analyses of fatty acids in the livers of ob/ob mice; assay type: in vivo, mouse
Method: Liver samples (100 mg) obtained from fatostatin A-treated ob/ob mice and non-treated control mice and stored at −80° C. until analyzed for fatty acid contents. The fatty acids were extracted according to Folch's protocol and quantitatively analyzed using gas chromatography-mass spectrometry (GC-SM). As shown in the above table, there is about 50% reduction of C14:0 and C16:0, the products of the de novo fatty acid synthesis, and about 70% reduction of monounsaturated fatty acids C16:1, C18:1 and C20:1 and their elongation-desaturation products (C18:2)N-6, (C18:3)N-6, (C20:2)N-6, (C20-3)N-6 and (C20:5)N-3. Myristate (C14:0) and palmitate (C16:0), the products of FAS, were reduced by about 50% (P<0.05). There was no change in C18 levels, which is derived not only from de novo fatty acid synthesis by FAS, but also from food and chain elongation system. […] Also, the levels of polyunsaturated long-chain fatty acids (18:2)N-6, (18:3)N-6, (20:2)N-6, (20:3)N-6 and (20:5)N-3 were reduced 30-60%. These reductions are the result of down regulation of key enzymes in the lipogenic pathways (FAS, ACC and SCD, ACL) at transcription and translation.
Four- to 5-week old homozygous male obese (ob/ob) mice (C57BL/6J, The Jackson Laboratory, Bar Harbor, Me.) were housed under controlled conditions (12-hr light/dark cycle; 25° C.). The animals were housed 5 per cage and had ad libitum access to standard laboratory chow (Purina Mills, Richmond Ind.) and water for one week after their arrival. On first day of the experiment and every day thereafter the weight of the mice and the amount of the food consumed were measured. The weight of mice and food remaining were measured daily between 3-5 p.m. before the ip injection of fatostatin A (30 mg/kg; 150 μL). The administration of Fatostatin A or 10% DMSO in PBS to control groups (n=5) continued daily for four weeks till the end of the study.

mice (129Sv background) = test: mice, 48 hrs fasting / 48 hrs refeeding fat free diet; assay type: in vivo
Method: The drug-like chemical structure of fatostatin A prompted the inventors to investigate its ability to inhibit SREBP-1 in the liver of whole animals. The effect of fatostatin A on hepatic SREBP-1 under lipogenic conditions of prolonged fasting (48 hours) followed by feeding fat free high carbohydrate diet for another 48 hours was examined. Mice were intraperitoneally injected with fatostatin A at 30 mg/kg/day for 5 days starting one day prior to the 48-hour fasting period. After 48 hours of fasting, the treated group lost more weight than the control group did (6.12±0.6 compared to 4.9±0.3 gram/mouse; p=0.01.) (FIG. 6A).
The expression levels of SREBP-1 in the liver extracts were examined by western blots. […] The hepatic expression of fatty acid synthase (FAS), a representative of SREBP-1-responsive lipogenic enzymes (Boizard et al., 1998), was also determined after the treatment. […] The activity of acetyl-CoA carboxylase (ACC) (FIG. 6F), which is also regulated by SREBP-1, decreased in liver extracts as observed for FAS (FIG. 6G).
Male mice (129Sv background) were housed under controlled conditions (12-hr light/dark cycle; 25° C.) in the Animal Care Center at Baylor College of Medicine and had ad libitum access to standard laboratory chow (Purina Mills) and water. Fatostatin A was administered intraperitoneally (30 mg/kg; 150 μL) to 5-6 month old male mice (129Sv background) using two different protocols. First protocol involves fasting the mice for 48 hrs, followed by refeeding fat free diet for another 48 hrs. This treatment induces both activities and levels of lipogenic enzymes such as ACC and FAS in addition to SREBPs. The administration of fatostatin A or 10% DMSO in PBS to control groups (n=5) started 24 hrs before the fasting and continued daily until the end of the experiment.
In the second protocol, two groups of male mice (n=5) were treated daily for two weeks with either 30 mg/kg fatostatin A or 10% DMSO in PBS. Food intake and body weight were measured daily. At the end of the experiments, the mice were briefly fasted for 4-5 hrs, and their blood was withdrawn for determination of serum constituents. The mice were then sacrificed, and their livers were quickly removed and ground to powder in liquid nitrogen. The powdered tissues were suspended in 10 ml of PBS containing 0.1 mM PMSF, 5 mM benzamidine, and 5 mg/mL protease inhibitor cocktail (Roche), homogenized using Polytron (3×30 Sec, at a high speed), and sonicated briefly to degrade DNA. The extracts were clarified by centrifugation at 16,000×g for 20 min. The samples were then subjected to western blot analysis using commercially available antibodies against FAS and SREBP-1. FAS and ACC activities were determined as described earlier (Mao et al., 2006).

## CCCc1cc(-c2nc(-c3ccc(C)cc3)cs2)ccn1 [Compound 1, 2-propyl-4-(4-p-tolylthiazol-2-yl)pyridine]
ob/ob mice; ob/ob mice liver
  Fatty Acid (14:0) Ratio treated:control: 0.5148
  Fatty Acid (16:0) Ratio treated:control: 0.4367
  Fatty Acid (16:1) Ratio treated:control: 0.3285
  Fatty Acid (18:0) Ratio treated:control: 1.066
  Fatty Acid (18:1) Ratio treated:control: 0.2922
  Fatty Acid (18:2)N-6 Ratio treated:control: 0.638
  Fatty Acid (18:3)N-3 Ratio treated:control: 1.218
  Fatty Acid (18:3)N-6 Ratio treated:control: 0.4232
  Fatty Acid (20:0) Ratio treated:control: 0.8517
  Fatty Acid (20:1) Ratio treated:control: 0.3245
  Fatty Acid (20:2)N-6 Ratio treated:control: 0.4668
  Fatty Acid (20:3)N-6 Ratio treated:control: 0.6297
  Fatty Acid (20:4)N-6 Ratio treated:control: 1.125
  Fatty Acid (20:5)N-3 Ratio treated:control: 0.6994
  Fatty Acid (22:0) Ratio treated:control: 1.266
  Fatty Acid (22:1) Ratio treated:control: 0.871
  Fatty Acid (22:4)N-6 Ratio treated:control: 0.959
  Fatty Acid (22:5)N-3 Ratio treated:control: 0.7357
  Fatty Acid (22:5)N-6 Ratio treated:control: 1.18
  Fatty Acid (22:6)N-3 Ratio treated:control: 1.058
  Fatty Acid (24:0) Ratio treated:control: 1.308
  Fatty Acid (24:1) Ratio treated:control: 1.699
ob/ob mice; treated ob/ob mice
  Fatty Acid (16:0) in liver: 37100 ± 3660 nmol/g liver
  Fatty Acid (16:1) in liver: 11400 ± 228 nmol/g liver
  Fatty Acid (18:0) in liver: 15100 ± 916 nmol/g liver
  Fatty Acid (18:1) in liver: 44500 ± 8840 nmol/g liver
  Fatty Acid (18:2)N-6 in liver: 29700 ± 2460 nmol/g liver
  Fatty Acid (20:0) in liver: 164 ± 22.9 nmol/g liver
  Fatty Acid (22:0) in liver: 116 ± 26 nmol/g liver
  Fatty Acid (24:0) in liver: 158 ± 7.02 nmol/g liver
ob/ob mice; vs untreated control mice
  increase in C24:0 in livers: 30%
  lowering of C20:0 in livers: about 15%
  reduction of (18:2)N-6, (18:3)N-6, (20:2)N-6, (20:3)N-6 and (20:5)N-3 in livers: 30-60%
  reduction of (C18:2)N-6, (C18:3)N-6, (C20:2)N-6, and (C20-3)N-6 in livers: about 50%
  reduction of C14:0 and C16:0 in livers: about 50%
  reduction of monounsaturated fatty acids C16:1, C18:1 and C20:1 in livers: about 70%
Mice (129Sv background); 30 mg/kg/day ip
  decrease of FAS expression level in liver extracts (western blot): up to 30%
Mice (129Sv background); 30 mg/kg/day ip for 5 days
  food intake and toxicity during the treatment: No reduction of food intake or obvious toxicity
Mice (129Sv background); 30 mg/kg/day ip, control 4.9±0.3
  weight lost after 48 hours of fasting: 6.12±0.6 gram/mouse
Mice (129Sv background); after 48 hours of refeeding fat free high carbohydrate diet, control 137±14
  serum glucose: 110 ± 23 mg/dL
Mice (129Sv background); after 48 hours of refeeding, control 30±6
  serum LDL: 16 ± 5 mg/dL
Mice (129Sv background); after 48 hours of refeeding, control 120±19
  serum cholesterol: 93 ± 20 mg/dL
